Reference: ChEMBL document CHEMBL2177089, “Novel tetrahydropyrido[1,2-a]isoindolone derivatives (valmerins): potent cyclin-dependent kinase/glycogen synthase kinase 3 inhibitors with antiproliferative activities and antitumor effects in human tumor xenografts” (J Med Chem, 2012)
The source made the active and inactive calls. The rule behind the calls is not given here.

Columns and labels:
[1] = target: Glycogen synthase kinase-3 (Sus scrofa, UniProt B2LUN4+I6LNT8); assay: Inhibition of porcine brain GSK-3alpha/beta using YRRAAVPPSPSLSRHSSPHQpSEDEEE as substrate and [gamma-33P]-ATP after 30 mins by scintillation counting
[2] = target: Dual specificity tyrosine-phosphorylation-regulated kinase 1A (Homo sapiens, UniProt Q13627); assay: Inhibition of human recombinant GST-fused DYRK1A expressed in Escherichia coli using KKISGRLSPIMTEQ as substrate and [gamma-33P]-ATP after 30 mins by scintillation counting
[3] = target: Cyclin-dependent kinase 5/CDK5 activator 1 (Homo sapiens, UniProt Q00535); assay: Inhibition of human recombinant CDK5/p25 using histone H1 as substrate and [gamma-33P]-ATP after 30 mins by scintillation counting; type: protein-complex assay
[4] = Inhibition of porcine brain CK1delta/epsilon using RRKHAAIGpSAYSITA as substrate and [gamma-33P]-ATP after 30 mins by scintillation counting; design: species or system Sus scrofa
[5] = test system: PC-3; assay: cells; settings: Homo sapiens, PC-3, 48 h
Description: Cytotoxicity against human PC3 cells after 48 hrs

[6] = test system: Huh-7; assay: cells; settings: Homo sapiens, Huh-7, 48 h
Description: Cytotoxicity against human HuH7 cells after 48 hrs

[7] = test system: NCI-H727; assay: cells; settings: Homo sapiens, NCI-H727, 48 h
Description: Cytotoxicity against human NCI-H727 cells after 48 hrs

[8] = test system: Caco-2; assay: cells; settings: Homo sapiens, Caco-2, 48 h
Description: Cytotoxicity against human Caco2 cells after 48 hrs

[9] = test system: HCT-116; assay: cells; settings: Homo sapiens, HCT-116, 48 h
Description: Cytotoxicity against human HCT116 cells after 48 hrs

[10] = Cytotoxicity against human skin fibroblasts cells after 48 hrs; settings: Fibroblast
[11] = test system: MDA-MB-231; assay: cells; settings: Homo sapiens, MDA-MB-231, 48 h
Description: Cytotoxicity against human MDA-MB-231 cells after 48 hrs

[12] = test system: Huh-7; assay: Cell cycle arrest in human HuH7 cells assessed as accumulation at G1 phase at 1 uM after 24 hrs; type: functional, cell-based
[13] = test system: HCT-116; assay: Induction of apoptosis in human HCT116 cells assessed as activation of caspase-3 at 1 uM after 24 hrs; type: functional, cell-based
[14] = test system: HCT-116; assay: Cell cycle arrest in human HCT116 cells assessed as accumulation at G1 phase at 1 uM after 24 hrs; type: functional, cell-based
[15] = test system: NCI-H727; assay: Cell cycle arrest in human NCI-H727 cells assessed as accumulation at G1 phase at 1 uM after 24 hrs; type: functional, cell-based
[16] = test system: PC-3; assay: Cell cycle arrest in human PC3 cells assessed as accumulation at G1 phase at 1 uM after 24 hrs; type: functional, cell-based
[17] = test system: Caco-2; assay: Cell cycle arrest in human Caco2 cells assessed as accumulation at G1 phase at 1 uM after 24 hrs; type: functional, cell-based
[18] = test system: MDA-MB-231; assay: Cell cycle arrest in human MDA-MB-231 cells assessed as accumulation at G1 phase at 1 uM after 24 hrs; type: functional, cell-based

Sequence of Cyclin-dependent kinase 5/CDK5 activator 1 (Q00535 whole entry): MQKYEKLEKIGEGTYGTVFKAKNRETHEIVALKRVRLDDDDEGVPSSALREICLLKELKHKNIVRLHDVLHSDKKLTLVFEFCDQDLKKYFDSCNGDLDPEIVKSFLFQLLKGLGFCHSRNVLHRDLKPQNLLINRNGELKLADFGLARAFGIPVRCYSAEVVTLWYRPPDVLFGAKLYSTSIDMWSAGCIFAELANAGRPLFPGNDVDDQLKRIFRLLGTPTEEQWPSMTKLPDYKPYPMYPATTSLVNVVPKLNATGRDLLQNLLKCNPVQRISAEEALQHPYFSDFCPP
Sequence of Cyclin-dependent kinase 5/CDK5 activator 1 (Q15078 whole entry, further chain): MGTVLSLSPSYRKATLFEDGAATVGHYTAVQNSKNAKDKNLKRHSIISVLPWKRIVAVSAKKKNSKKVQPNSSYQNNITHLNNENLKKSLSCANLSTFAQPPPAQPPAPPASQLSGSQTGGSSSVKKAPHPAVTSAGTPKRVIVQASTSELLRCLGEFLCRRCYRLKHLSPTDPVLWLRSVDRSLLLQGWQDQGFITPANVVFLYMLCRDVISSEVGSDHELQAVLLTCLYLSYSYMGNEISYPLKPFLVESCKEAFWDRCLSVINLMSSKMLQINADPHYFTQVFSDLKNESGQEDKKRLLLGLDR

SMILES | IC50 [1] [µM] | IC50 [2] [µM] | IC50 [3] [µM] | further results
O=C(Nc1cccc2c1C1CCCCN1C2=O)NC1CCCCC1 (centres undefined) | > 10 | > 10 | > 10 | 
O=C(Nc1ccc(Br)cn1)Nc1cccc2c1C1CCCCN1C2=O (centres undefined) | 0.076 | > 10 |  | 
O=C(Nc1ccc(-c2ccccc2)cn1)Nc1cccc2c1C1CCCCN1C2=O (centres undefined) | 0.14 | > 10 | 4 | IC50 [4]: > 10 µM
Cc1cc(NC(=O)Nc2cccc3c2C2CCCCN2C3=O)no1 (centres undefined) | 0.33 |  |  | 
O=C(Nc1csc(-c2ccncc2)n1)Nc1cccc2c1C1CCCCN1C2=O (centres undefined) | 0.13 |  |  | 
O=C(Nc1cccc2c1C1CCCCN1C2=O)Nc1nc(Cl)c(Cl)c(Cl)c1Cl (centres undefined) | 4.3 | > 10 | 10 | 
O=C(Nc1cc(Br)ccn1)Nc1cccc2c1C1CCCCN1C2=O (centres undefined) | 0.022 | 7.6 | 0.025 | IC50 [5]: 100 nM; IC50 [6]: 5 µM; IC50 [7]: 400 nM; IC50 [8]: 100 nM; IC50 [9]: 100 nM; IC50 [10]: 500 nM; IC50 [4]: 1.3 µM; IC50 [11]: 500 nM
O=C(Nc1cnccn1)Nc1cccc2c1C1CCCCN1C2=O (centres undefined) |  |  |  | Activity [12]: Active; Activity [13]: Active; Activity [14]: Active; Activity [15]: Active; Activity [16]: Active; Activity [17]: Active; Activity [18]: Active
O=C(Nc1cscn1)Nc1cccc2c1C1CCCCN1C2=O (centres undefined) | 0.76 |  |  | 
O=C(Nc1cc[nH]n1)Nc1cccc2c1C1CCCCN1C2=O (centres undefined) | 0.47 |  |  | 
Cc1nc(NC(=O)Nc2cccc3c2C2CCCCN2C3=O)cs1 (centres undefined) | 0.12 |  |  | 
O=C(Nc1nc2ccccc2s1)Nc1cccc2c1C1CCCCN1C2=O (centres undefined) | 3.5 | > 10 |  | 
O=C(Nc1cc(O)c2ccccc2n1)Nc1cccc2c1C1CCCCN1C2=O (centres undefined) | 1.2 | 5.6 | 10 | 
O=C(Nc1ccc(O)cn1)Nc1cccc2c1C1CCCCN1C2=O (centres undefined) | 4 | > 10 | 1.3 | IC50 [4]: ≥ 10 µM
